Test results reported in patent publication US4824855A, “1,4-dihydropyridine derivatives” (Sanwa Kagaku Kenkyusho Co., Ltd., priority 1985, dated 1989).
Entries after “also recorded” stand apart in the source; their conditions may differ. Like-named read-outs stand apart in the source and are kept apart here.

Tests used:
[1] = tested on: femoral arterial blood flow; test: Effect of compounds on femoral arterial blood flow in anesthetized dogs; assay type: in vivo, mongrel dogs; conditions: 1 μg/kg, i.v.
Protocol: (§1) An experiment was carried out by anesthetizing adult male and female mongrel dogs (weight; 10-20 kg) with Nembutal (30 mg/kg i.p.) and artificially respiring (20 ml/kg/stroke, 20 strokes/min) the animals.
(§2) Right vertebral and femoral arteries were exposed and each probe of electro-magnetic flow meter was fitted therein to measure vertebral and femoral arterial blood flow. A cannula was inserted into descending aorta from left femoral artery in order to measure blood pressure by pressure transducer connected to amplifier. Each of test compounds dissolved in 50% ethanol solution (1 μg/kg, i.v.) was administered from the cannula into cephlic vein.

[2] = tested on: spiral strip of New Zealand white rabbit aorta; test: Ca antagonistic effect (Magnus method, Ca-induced contraction after K depolarization); assay type: cell-based
Protocol: Ca antagonistic effect was examined on a spiral strip of New Zealand white rabbit aorta with the Magnus method. The response of preparations was recorded isometically on a recorder. […] The data given in following Table 1 are presented as inhibitory % to concentration without the compound.

diastolic blood pressure = test: Effect of compounds on diastolic blood pressure in anesthetized dogs; assay type: in vivo, mongrel dogs; conditions: 1 μg/kg, i.v.
Protocol: as §1, §2

left atrium = test: Negative inotropic effect on electrically driven left atrium; assay type: cell-based, New Zealand white rabbit; conditions: Oryctolagus cuniculus; for inhibition at 100 µM: Concentration of the compound 10^-4 mol; for inhibition at 10 µM: Concentration of the compound 10^-5 mol; for IC50: read-out: ID50 (× 10^-4)
Protocol: New Zealand white rabbit was killed by bleeding from the carotid artery and the left atrium was quickly removed. […] The response of preparations was recorded isometically on a recorder. The initial tension applied to the preparation was adjusted to 1 g.

[3] = tested on: vertebral arterial blood flow; test: Effect of compounds on vertebral arterial blood flow in anesthetized dogs; assay type: in vivo, mongrel dogs; conditions: 1 μg/kg, i.v.
Protocol: as §1, §2

[4] = Acute toxicity (oral, Litchfield-Wilcoxon method); conditions: mouse, in vivo, dd mice, observation for 72 hours
Protocol: Male and female dd mice were used (weight: 18-20 g). Each of compounds to be tested was dissolved in 1% Nikkol and administered directly into stomach by forced oral administration and with use of a metal sonde. LD50 of the compounds were calculated by Litchfield-Wilcoxon method, after observation for 72 hours.

[5] = related arts; cited from earlier work
[6] = tested on: vertebral arterial blood flow; test: Vertebral and femoral arterial blood flow increasing action (ED50); assay type: in vivo; conditions: Canis lupus familiaris, iv; amount required to increase the vertebral arterial blood flow by 50%, anesthetized dogs
Protocol: The bloodflow increasing action of the compounds was measured on anesthetized dogs, in a manner similar to that of Pharmaceutical Test Example 3, to obtain the results shown in Table 6 below:
ED50 in the Table indicates the amount of the compound required to increase the vertebral arterial blood flow by 50%.

[7] = tested on: spontaneously hypertensive male rats; test: Blood pressure depressing action (systolic pressure); assay type: in vivo; conditions: 3.0 mg/kg oral
From the text: The testing or control compound was orally administered to the indicated number (N) of spontaneously hypertensive male rats (15 or more weeks old).

[8] = compound 10^-7 mol, Concentration of Ca ion 2.5 mM
[9] = compound 10^-7 mol, Concentration of Ca ion 5.0 mM
[10] = compound 10^-8 mol, Concentration of Ca ion 2.5 mM
[11] = compound 10^-8 mol, Concentration of Ca ion 5.0 mM
[12] = negative inotropic effect, compound concentrations in the table in mol

| SMILES | Change (%) FABF [1] [%] | Inhibitory (%) [2, 8] [%] | Inhibitory (%) [2, 9] [%] | Inhibitory (%) [2, 10] [%] | Inhibitory (%) [2, 11] [%] | Change (%) DBP (diastolic blood pressure) [%] | inhibition at 100 µM (left atrium; read-out: Change (%)) [%] | inhibition at 10 µM (left atrium; read-out: Change (%)) [%] | IC50 (left atrium; [12]) [µM] | Change (%) VABF [3] [%] | LD50 at 72 h [4] [mg/kg] | effect on cerebral blood flow [5] | Systolic pressure (change from pre-value) ([7]; 1 hr) [mm Hg] | Systolic pressure (change from pre-value) ([7]; 2 hr) [mm Hg] | Systolic pressure (change from pre-value) ([7]; 4 hr) [mm Hg] | Systolic pressure (change from pre-value) ([7]; 6 hr) [mm Hg] | Systolic pressure (change from pre-value) ([7]; 24 hr) [mm Hg] | further results |
| --- | --- | --- | --- | --- | --- | --- | --- | --- | --- | --- | --- | --- | --- | --- | --- | --- | --- | --- |
| CC1=C(C(=O)OCCN(C)Cc2ccccc2)C(c2cccc([N+](=O)[O-])c2)C(C(=O)OCC2CC2)=C(C)N1 (centres unmarked) [Example 1, 3-cyclopropylmethyl 5-[2-(N-benzyl-N-methylamino)ethyl] 1,4-dihydro-2,6-dimethyl-4-(3-nitrophenyl)pyridine-3,5-dicarboxylate] | 25 ± 8 | 94.7 ± 3.72 | > 100 | 76.1 ± 6.62 | 81.3 ± 5.46 | -9 ± 1 | 15.7 | 7.4 | 320 | 51 ± 13 | 211 | – | – | – | – | – | – | – |
| CC1=C(C(=O)OCCN(C)Cc2ccc(Cl)cc2)C(c2cccc([N+](=O)[O-])c2)C(C(=O)OCC2CC2)=C(C)N1 (centres unmarked) [Example 3, 3-[2-[N-(4-chlorobenzyl)-N-methylamino]ethyl] 5-cyclopropylmethyl 1,4-dihydro-2,6-dimethyl-4-(3-nitrophenyl)pyridine-3,5-dicarboxylate] | 23 ± 8 | – | – | – | – | -8 ± 1 | – | – | – | 56 ± 12 | – | – | – | – | – | – | – | – |
| COc1ccc(CN(C)CCOC(=O)C2=C(C)NC(C)=C(C(=O)OCC3CC3)C2c2cccc([N+](=O)[O-])c2)cc1 (centres unmarked) [Example 4, 3-cyclopropylmethyl 5-[2-[N-(4-methoxybenzyl)-N-methylamino]ethyl] 1,4-dihydro-2,6-dimethyl-4-(3-nitrophenyl)pyridine-3,5-dicarboxylate] | 19 ± 6 | – | – | – | – | -6 ± 1 | – | – | – | 33 ± 5 | – | – | – | – | – | – | – | – |
| COC(=O)C1=C(C)NC(C)=C(C(=O)OCCN(C)Cc2ccccc2)C1c1cccc([N+](=O)[O-])c1 (centres unmarked) [Nicardipine, 1,4-dihydro-2,6-dimethyl-4-(3-nitrophenyl)-pyridine-3,5-dicarboxylic acid 3-2-(N-benzyl-N-methylamino)ethyl 5-methyl ester] | 14 ± 5 | 90.9 ± 12.06 | 83.2 ± 15.93 | 26.5 ± 18.40 | 16.3 ± 21.28 | -10 ± 1 | 25.6 | 13.5 | 34 | 32 ± 7 | 305 | high cerebral blood flow increasing action | -10.0 ± 2.28 | -5.7 ± 1.61 | -3.0 ± 2.01 | -1.0 ± 1.50 | -4.2 ± 1.88 | ED50 [6]: 0.0042 mg/kg; inhibition at 1 µM (left atrium; Concentration of the compound 10^-6 mol, read-out: Change (%)): 3.4% |
| COC(=O)C1=C(C)NC(C)=C(C(=O)OC)C1c1ccccc1[N+](=O)[O-] [Nifedipine, dimethyl ester of 1,4-dihydro-2,6-dimethyl-4-(2-nitropheny)pyridine-3,5-dicarboxylic acid] | – | > 100 | > 100 | 63.5 ± 7.33 | 62.3 ± 7.91 | – | 19 | 9.5 | – | – | – | tendency of causing a relative decrease on cerebral blood flow | -19.3 ± 4.41 | -10.6 ± 3.14 | -4.3 ± 2.70 | -0.1 ± 1.56 | -1.1 ± 1.06 | pharmaceutical activities [5]: coronary vasodilating action, blood pressure depressing action; also recorded: powerful depressing action; IC50 (left atrium): 120 µM |
